What was measured:
Experiment in all cases: relative viability (nuclei count vs DMSO), 5 days (fraction); higher = more cells survive
[1] = compound: C1=CC=C(C(=C1)C2=CC=C(C=C2)C3=CSC4=C3C(=C(C(=O)N4)C#N)O)O + COc1cccc2cc(-c3nc([C@H]4CC[C@H](C(=O)O)CC4)n4ncnc(N)c34)[nH]c12 [OSI-027] (partner 0.5 µM)
Outline: (§1)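 Lung cancer cell lines in 1536-well plates were dosed by pin tool the day after seeding, either with one drug alone or with a fixed anchor-drug dose plus five library-drug doses (not always all listed) in √10 steps. After 5 days, cells were fixed and their nuclei stained in one step (final 0.05% Triton X-100, 1% formaldehyde, 1 ug/ml Hoechst), then counted on 4× images. Relative viability is the nuclei count in treated wells divided by that in vehicle wells. Values are medians of duplicate plates.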

[2] = compound: C1=CC=C(C(=C1)C2=CC=C(C=C2)C3=CSC4=C3C(=C(C(=O)N4)C#N)O)O + Nc1ncn([C@H]2C[C@H](O)[C@@H](CO)O2)c(=O)n1 [Decitabine] (partner 2 µM)
Outline: as §1

TGX 221 + Decitabine = compound: CC1=CN2C(=O)C=C(N=C2C(=C1)C(C)NC3=CC=CC=C3)N4CCOCC4 [TGX 221] + Nc1ncn([C@H]2C[C@H](O)[C@@H](CO)O2)c(=O)n1 [Decitabine] (partner 2 µM)
Outline: as §1

Ricolinostat + Foretinib = compound: O=C(CCCCCCNC(=O)c1cnc(N(c2ccccc2)c2ccccc2)nc1)NO [Ricolinostat] + COc1cc2c(Oc3ccc(NC(=O)C4(C(=O)Nc5ccc(F)cc5)CC4)cc3F)ccnc2cc1OCCCN1CCOCC1 [Foretinib] (partner 0.25 µM)
Outline: as §1

Row | Cell Line | relative viability ([1]; first compound 0.08 µM) | relative viability ([1]; first compound 0.253 µM) | relative viability ([1]; first compound 0.8 µM) | relative viability ([1]; first compound 2.53 µM) | relative viability ([1]; first compound 8 µM) | relative viability ([2]; first compound 0.08 µM) | relative viability ([2]; first compound 0.253 µM) | relative viability ([2]; first compound 0.8 µM) | relative viability ([2]; first compound 2.53 µM) | relative viability ([2]; first compound 8 µM) | relative viability (TGX 221 + Decitabine; first compound 0.08 µM) | relative viability (TGX 221 + Decitabine; first compound 0.253 µM) | relative viability (TGX 221 + Decitabine; first compound 0.8 µM) | relative viability (TGX 221 + Decitabine; first compound 2.53 µM) | relative viability (TGX 221 + Decitabine; first compound 8 µM) | relative viability (Ricolinostat + Foretinib; first compound 0.08 µM) | relative viability (Ricolinostat + Foretinib; first compound 0.253 µM) | relative viability (Ricolinostat + Foretinib; first compound 0.8 µM) | relative viability (Ricolinostat + Foretinib; first compound 2.53 µM)
1 | ABC-1 | 0.37 | 0.477 | 0.478 | 0.424 | 0.257 | 1.4 | 1.03 | 1.03 | 0.899 | 1.07 | 1.06 | 1.26 | 1 | 1.07 | 0.923 | 0.88 | 0.901 | 1.11 | 0.912
2 | NCI-H1563 | 0.672 | 0.746 | 0.7 | 0.774 | 0.745 | – | – | – | – | – | – | – | – | – | – | 0.89 | 0.874 | 0.844 | 0.793
3 | NCI-H1355 | 0.379 | 0.44 | 0.43 | 0.351 | 0.317 | 0.362 | 0.391 | 0.351 | 0.333 | 0.366 | 0.35 | 0.349 | 0.355 | 0.325 | 0.309 | 0.953 | 0.978 | 0.976 | 0.873
4 | NCI-H2228 | 0.6 | 0.785 | 0.576 | 0.491 | 0.372 | – | – | – | – | – | – | – | – | – | – | 0.754 | 1.04 | 0.783 | 0.738
5 | LXF-289 | 0.666 | 0.801 | 0.778 | 0.865 | 0.732 | 0.428 | 0.393 | 0.393 | 0.364 | 0.365 | 0.37 | 0.371 | 0.369 | 0.348 | 0.375 | 0.987 | 0.895 | 0.947 | 0.967
6 | NCI-H2085 | 0.866 | 1.02 | 0.661 | 0.627 | 0.512 | 0.543 | 0.615 | 0.499 | 0.528 | 0.495 | 0.59 | 0.524 | 0.548 | 0.414 | 0.451 | – | 0.867 | 1.02 | 0.783
7 | NCI-H2342 | 0.555 | 0.702 | 0.561 | 0.664 | 0.555 | 0.826 | 0.774 | 0.724 | 0.729 | 0.604 | 0.693 | 0.638 | 0.725 | 0.68 | 0.773 | 0.88 | 0.975 | 1.19 | 1.07
8 | EMC-BAC-2 | 0.41 | 0.411 | 0.312 | 0.355 | 0.357 | 0.893 | – | 0.979 | 0.967 | 0.933 | 0.961 | 0.886 | 0.947 | 1.05 | 0.85 | 0.905 | 1.03 | 0.942 | 0.851
9 | IA-LM | – | – | – | – | – | – | – | – | – | – | – | – | – | – | – | 0.959 | 1.01 | 1.09 | 0.932
10 | A549 | – | – | – | – | – | – | 0.315 | 0.207 | 0.306 | 0.211 | 0.337 | 0.25 | 0.294 | 0.26 | 0.349 | 0.859 | 0.99 | 0.928 | 0.917
11 | NCI-H3122 | 0.836 | 1.07 | 1.09 | 1.33 | 0.774 | 0.513 | 0.435 | 0.362 | 0.421 | 0.535 | 0.405 | 0.33 | 0.422 | 0.378 | 0.548 | 0.98 | 0.959 | 1.08 | 1.13
